Source: ChEMBL document CHEMBL5584340, “Discovery of Novel Antiosteoporosis Leads with Bone Resorption Inhibition and Anabolic Promotion through a Chemotype-Assembly Approach” (J Med Chem, 2024)
pIC50: −log10 of the molar value. The source made the active and inactive calls. The calls are words filed in the database; no cut-off is given here.

What was measured:
[1] = Toxicity in OVX-induced osteoporosis C57BL/6 mouse model assessed as change in serum triglyceride level at 10 mg/kg,po administrated for 4 week; type: organism-based; details: in vivo, 672 h, time 4 weeks
[2] = system: Mus musculus; assay: Anti-osteoporosis activity in OVX-induced osteoporosis C57BL/6 mouse model assessed as increase in trabecular thickness in femur at 10 mg/kg,po administrated for 4 weeks by Micro-CT analysis; type: functional, organism-based
[3] = Cytotoxicity against mouse RAW264.7 cells incubated for 48 hrs by CCK-8 assay; type: toxicity, cell-based
[4] = system: BMDM; assay: Anti-osteoclastogenic activity in M-CSF/RANKL-induced C57BL/6 mouse BMDM cells assessed as downregulation of CTSK mRNA expression at 1 uM incubated for 7 days by RT-qPCR analysis; type: functional, cell-based; details: time 7.0 day
[5] = system: BMDM; assay: Anti-osteoclastogenic activity in M-CSF/RANKL-induced C57BL/6 mouse BMDM cells assessed as downregulation of ATP6VOD2 mRNA expression at 1 uM incubated for 7 days by RT-qPCR analysis; type: functional, cell-based; details: time 7.0 day
[6] = Toxicity in OVX-induced osteoporosis C57BL/6 mouse model assessed as change in serum ALT level at 10 mg/kg,po administrated for 4 week; type: organism-based; details: in vivo, 672 h, time 4 weeks
[7] = system: Mus musculus; assay: Anti-osteoporosis activity in OVX-induced osteoporosis C57BL/6 mouse model assessed as decrease in serum CTX-I level at 10 mg/kg,po administrated for 4 weeks; type: functional, organism-based
[8] = system: C3H 10T1/2; assay: Induction of osteoblast mineralization in mouse C3H 10T1/2 cells assessed as increase in calcium deposition at 1 uM measured after 14 days by Alizarin Red S staining based analysis; type: functional, cell-based; details: time 14.0 day
[9] = system: C3H 10T1/2; assay: Induction of osteoblastogenesis in mouse C3H 10T1/2 cells assessed as upregulation of ALP gene expression at 1 uM incubated for 7 days by RT-qPCR analysis; type: functional, cell-based; details: time 7.0 day
[10] = Toxicity in OVX-induced osteoporosis C57BL/6 mouse model assessed as change in serum creatinine level at 10 mg/kg,po administrated for 4 week; type: organism-based; details: in vivo, 672 h, time 4 weeks
[11] = Toxicity in OVX-induced osteoporosis C57BL/6 mouse model assessed as change in body weight at 30 mg/kg,po administrated for 1 week; type: organism-based; details: in vivo, 168 h, time 1 weeks
[12] = Toxicity in OVX-induced osteoporosis C57BL/6 mouse model assessed as change in hair color at 30 mg/kg,po administrated for 1 week; type: organism-based; details: in vivo, 168 h, time 1 weeks
[13] = Toxicity in OVX-induced osteoporosis C57BL/6 mouse model assessed as change in serum total cholesterol level at 10 mg/kg,po administrated for 4 week; type: organism-based; details: in vivo, 672 h, time 4 weeks
[14] = Toxicity in OVX-induced osteoporosis C57BL/6 mouse model assessed as change in water intake at 30 mg/kg,po administrated for 1 week; type: organism-based; details: in vivo, 168 h, time 1 weeks
[15] = Toxicity in OVX-induced osteoporosis C57BL/6 mouse model assessed as change in stool state at 30 mg/kg,po administrated for 1 week; type: organism-based; details: in vivo, 168 h, time 1 weeks
[16] = system: BMDM; assay: Anti-osteoclastogenic activity in M-CSF/RANKL-induced C57BL/6 mouse BMDM cells assessed as downregulation of C-Fos mRNA expression at 1 uM incubated for 7 days by RT-qPCR analysis; type: functional, cell-based; details: time 7.0 day
[17] = Toxicity in OVX-induced osteoporosis C57BL/6 mouse model assessed as change in serum AST level at 10 mg/kg,po administrated for 4 week; type: organism-based; details: in vivo, 672 h, time 4 weeks
[18] = Toxicity in OVX-induced osteoporosis C57BL/6 mouse model assessed as change in serum urea nitrogen level at 10 mg/kg,po administrated for 4 week; type: organism-based; details: in vivo, 672 h, time 4 weeks
[19] = system: Mus musculus; assay: Anti-osteoporosis activity in OVX-induced osteoporosis C57BL/6 mouse model assessed as increase in trabecular number in femur at 10 mg/kg,po administrated for 4 weeks by Micro-CT analysis; type: functional, organism-based
[20] = system: Mus musculus; assay: Anti-osteoporosis activity in OVX-induced osteoporosis C57BL/6 mouse model assessed as increase in serum PINP level at 10 mg/kg,po administrated for 4 weeks; type: functional, organism-based
[21] = system: C3H 10T1/2; assay: Induction of osteoblast differentiation in mouse C3H 10T1/2 cells at 1 uM incubated for 7 days by ALP staining based analysis; type: functional, cell-based; details: time 7.0 day
[22] = system: BMDM; assay: Anti-osteoclastogenic activity in M-CSF/RANKL-induced C57BL/6 mouse BMDM cells assessed as fold change in inhibition of M-CSF/RANKL-stimulated osteoclast differentiation at 10 uM measured after 5 days by TRAP staining based microscopic analysis relative to control; type: functional; details: time 5 day
[23] = Toxicity in OVX-induced osteoporosis C57BL/6 mouse model assessed as change in urine color at 30 mg/kg,po administrated for 1 week; type: organism-based; details: in vivo, 168 h, time 1 weeks
[24] = system: Mus musculus; assay: Anti-osteoporosis activity in OVX-induced osteoporosis C57BL/6 mouse model assessed as increase in BV/TV in femur at 10 mg/kg,po administrated for 4 weeks by Micro-CT analysis; type: functional, organism-based
[25] = system: BMDM; assay: Anti-osteoclastogenic activity in M-CSF/RANKL-induced C57BL/6 mouse BMDM cells assessed as downregulation of TRACP mRNA expression at 1 uM incubated for 7 days by RT-qPCR analysis; type: functional, cell-based; details: time 7.0 day
[26] = system: C3H 10T1/2; assay: Induction of osteoblastogenesis in mouse C3H 10T1/2 cells assessed as upregulation of SPARC gene expression at 1 uM incubated for 7 days by RT-qPCR analysis; type: functional, cell-based; details: time 7.0 day
[27] = system: BMDM; assay: Anti-osteoclastogenic activity in M-CSF/RANKL-induced C57BL/6 mouse BMDM cells assessed as inhibition of M-CSF/RANKL-stimulated osteoclast differentiation measured after 5 days by TRAP staining based microscopic analysis; type: functional, cell-based; details: C57BL/6, BMDM, 120 h
[28] = system: C3H 10T1/2; assay: Induction of osteoblastogenesis in mouse C3H 10T1/2 cells assessed as upregulation of SP7 gene expression at 1 uM incubated for 7 days by RT-qPCR analysis; type: functional, cell-based; details: time 7.0 day
[29] = system: C3H 10T1/2; assay: Induction of osteoclastogenesis in mouse C3H 10T1/2 cells assessed as upregulation of RANKL gene expression at 1 uM incubated for 7 days by RT-qPCR analysis; type: functional, cell-based; details: time 7.0 day
[30] = system: Mus musculus; assay: Anti-osteoporosis activity in OVX-induced osteoporosis C57BL/6 mouse model assessed as prevention of bone loss in femur at 10 mg/kg,po administrated for 4 weeks by Micro-CT analysis; type: functional, organism-based
[31] = system: Mus musculus; assay: Anti-osteoporosis activity in OVX-induced osteoporosis C57BL/6 mouse model assessed as increase in […] in femur at 10 mg/kg,po administrated for 4 weeks by Micro-CT analysis; type: functional, organism-based
[32] = system: Mus musculus; assay: Anti-osteoporosis activity in OVX-induced osteoporosis C57BL/6 mouse model assessed as increase in serum osteocalcin level at 10 mg/kg,po administrated for 4 weeks; type: functional, organism-based
[33] = Toxicity in OVX-induced osteoporosis C57BL/6 mouse model assessed as change in mental state at 30 mg/kg,po administrated for 1 week; type: organism-based; details: in vivo, 168 h, time 1 weeks

O=C(O)c1cc2ccccc2cc1C(=O)Nc1nc2ccccc2s1
Activity [1]: Non-Toxic
Activity [2]: Active
CC50 at 48 h [3]: 65.5 µM
Activity [4]: Active
Activity [5]: Active
Activity [6]: Non-Toxic
Activity [7]: Active
Activity [8]: Active
Activity [9]: Active
Activity [10]: Non-Toxic
Activity [11]: Non-Toxic
Activity [12]: Non-Toxic
Activity [13]: Non-Toxic
Activity [14]: Non-Toxic
Activity [15]: Non-Toxic
Activity [16]: Active
Activity [17]: Non-Toxic
Activity [18]: Non-Toxic
Activity [19]: Active
Activity [20]: Active
Activity [21]: Active
fold change (FC) [22]: 21.25
Activity [23]: Non-Toxic
Activity [24]: Active
Activity [25]: Active
Activity [26]: Active
pIC50 [27]: 6.40
Activity [28]: Active
Activity [29]: inactive
Activity [30]: Active
Activity [31]: Active
Activity [32]: Active
Activity [33]: Non-Toxic
